Reference: patent US7691382B2, “Antiviral polypeptides comprising tandem repeats of APOE 141-149 and variants thereof” (priority 2003, dated 2010)
Where two headings read alike, the source gives them in different places. Peptide text beside a SMILES is read from it.

Test system: HSV1
Type: cell-based, Human herpes simplex virus type 1
Settings: for efficacy for reducing HSV1 infectivity (in words): Examples 2 and 3
Method: African Green Monkey Kidney (Vero) cells were maintained in Eagle's minimum essential medium with Earle's salt (EMEM) and supplemented with 10% foetal calf serum (heat-inactivated), 4 mM L-glutamine, and 1% (v/v) nonessential amino acids, plus penicillin and streptomycin (100 IU/mg and […], respectively) (maintenance medium referred to as 10% EMEM). The cells were incubated at 37° C. in a humidified atmosphere of air with 5% CO2.
On harvesting, monolayers were washed in phosphate-buffered saline (PBS), and dislodged by incubating with trypsin in PBS for 30 min, before inactivating trypsin by addition of an equal volume of 10% EMEM and centrifuging at 500 g (5 min, 4° C.). Cell pellets were resuspended in 10% EMEM, prior to cell counting and seeding of 24-well plates. For antiviral assays, medium containing only 0.5% FCS was used (referred to as 0.5% EMEM).
Three separate passages of HSV1 virus were prepared by infecting Vero cells, and preparing semi-pure suspensions of virus from tissue culture supernatant and cell lysates, before freezing aliquots of virus at −85° C. Viral infectivity was assessed by carrying out plaque assays on serial dilutions of thawed aliquots (expressed in pfu/ml).
Peptides were obtained in lyophilised form from a commercial supplier (AltaBioscience, University of Birmingham or Advanced Biomedical), and were produced at 5 micromole scale. N-terminals were protected by addition of an acetyl group, and the C-terminals were protected by addition of an amide group.
Small quantities of peptide were weighed in sterile Eppendorf tubes, before addition of sufficient 0.5% EMEM to produce a 1.5 mM stock solution, which was frozen at −20° C. in aliquots.
Vero cells were seeded at 125,000 cells per well in 10% EMEM, and were incubated overnight resulting in confluent monolayers. […] Virus stocks (p3) were thawed, and diluted in 0.5% EMEM such that there were around 100 pfu in 100 μl. Each 24-well plate was inoculated separately. Firstly 100 μl of virus stock was added to the peptide or control medium arranged on a 96-well plate. This was incubated at 37° C. for ten minutes before inoculation. Medium was removed from four wells of a 24-well plate containing confluent Vero, and the 200 μl inoculum added to the appropriate well. Once all wells were treated, the 24-well plate was incubated for a further 60-80 minutes. Finally the peptide-containing inoculum was removed, and 1 ml of 1% EMEM containing 1% carboxymethylcellulose was added to each well. Plates were incubated for a further 22 hours or in some experiments 40 hours, before removal of overlay, and addition of 10% formaldehyde in PBS. After a further one hour incubation, fixative was removed, monolayers washed several times with tap water, and stained with carbol fuchsin solubilised in water. After 30 minutes stain was removed, and plates washed several times with tap water, before being air dried. Plaques were counted using an Olympus IX70 Inverting Microscope, and antiviral effect expressed as a percentage of the control value for each peptide concentration. The IC50 was calculated from plots of inhibitory effect against peptide concentration.

[1] = HSV-1, Vero cells, Table 6 (Example 3), read-out: IC50

With CC(=O)N[C@@H](CC(C)C)C(=O)N[C@@H](CCCNC(=N)N)C(=O)N[C@@H](CCCCN)C(=O)N[C@@H](CCCNC(=N)N)C(=O)N[C@@H](CC(C)C)C(=O)N[C@@H](CC(C)C)C(=O)N[C@@H](CC(C)C)C(=O)N[C@@H](CCCNC(=N)N)C(=O)N[C@@H](CCCCN)C(=O)N[C@@H](CC(C)C)C(=O)N[C@@H](CCCNC(=N)N)C(=O)N[C@@H](CCCCN)C(=O)N[C@@H](CCCNC(=N)N)C(=O)N[C@@H](CC(C)C)C(=O)N[C@@H](CC(C)C)C(N)=O [GIN 2] (Ac-LRKRLLLRKLRKRLL-NH2) the IC50 was > 40 µM and the “efficacy for reducing HSV1 infectivity (in words)” value was “no, or poor, efficacy”.

With CC(=O)N[C@@H](CC(C)C)C(=O)N[C@@H](CCCNC(=N)N)C(=O)N[C@@H](CCCCN)C(=O)N[C@@H](CC(C)C)C(=O)N[C@@H](CCCNC(=N)N)C(=O)N[C@@H](CCCCN)C(=O)N[C@@H](CCCNC(=N)N)C(=O)N[C@@H](CC(C)C)C(=O)N[C@@H](CC(C)C)C(=O)N[C@@H](CC(C)C)C(=O)N[C@@H](CCCNC(=N)N)C(=O)N[C@@H](CCCCN)C(=O)N[C@@H](CC(C)C)C(=O)N[C@@H](CCCNC(=N)N)C(=O)N[C@@H](CCCCN)C(N)=O [GIN 4] (Ac-LRKLRKRLLLRKLRK-NH2) the IC50 was 29.5 µM and the “efficacy for reducing HSV1 infectivity (in words)” value was “no, or poor, efficacy”.

In the case of CC(=O)N[C@@H](CC(C)C)C(=O)N[C@@H](CCCNC(=N)N)C(=O)N[C@@H](CCCCN)C(=O)N[C@@H](CC(C)C)C(=O)N[C@@H](CCCNC(=N)N)C(=O)N[C@@H](CCCCN)C(=O)N[C@@H](CCCNC(=N)N)C(=O)N[C@@H](CC(C)C)C(=O)N[C@@H](CC(C)C)C(=O)N[C@@H](CC(C)C)C(=O)N[C@@H](CCCNC(=N)N)C(=O)N[C@@H](CCCCN)C(N)=O [GIN 5] (Ac-LRKLRKRLLLRK-NH2), the IC50 is reported as > 40 µM and the “efficacy for reducing HSV1 infectivity (in words)” value is reported as “no, or poor, efficacy”.

In the case of CC(=O)N[C@@H](CCC(=O)O)C(=O)N[C@@H](CCCNC(=N)N)C(=O)N[C@@H](CCCCN)C(=O)N[C@@H](CCC(=O)O)C(=O)N[C@@H](CCCNC(=N)N)C(=O)N[C@@H](CCCCN)C(=O)N[C@@H](CCCNC(=N)N)C(=O)N[C@@H](CCC(=O)O)C(=O)N[C@@H](CCC(=O)O)C(=O)N[C@@H](CCC(=O)O)C(=O)N[C@@H](CCCNC(=N)N)C(=O)N[C@@H](CCCCN)C(=O)N[C@@H](CCC(=O)O)C(=O)N[C@@H](CCCNC(=N)N)C(=O)N[C@@H](CCCCN)C(=O)N[C@@H](CCCNC(=N)N)C(=O)N[C@@H](CCC(=O)O)C(=O)N[C@@H](CCC(=O)O)C(N)=O [GIN 6] (Ac-ERKERKREEERKERKREE-NH2), the IC50 is reported as > 40 µM and the “efficacy for reducing HSV1 infectivity (in words)” value is reported as “no, or poor, efficacy”.

In the case of CC(=O)N[C@@H](CC(C)C)C(=O)N[C@@H](CCCNC(=N)N)C(=O)N[C@@H](CCCCN)C(=O)N[C@@H](CC(C)C)C(=O)N[C@@H](CCCNC(=N)N)C(=O)N[C@@H](CCCCN)C(=O)N[C@@H](CCCNC(=N)N)C(=O)N[C@@H](CC(C)C)C(=O)N[C@@H](CCCNC(=N)N)C(=O)N[C@@H](CCCCN)C(=O)N[C@@H](CC(C)C)C(=O)N[C@@H](CCCNC(=N)N)C(=O)N[C@@H](CCCCN)C(=O)N[C@@H](CCCNC(=N)N)C(N)=O [GIN 8] (Ac-LRKLRKRLRKLRKR-NH2), the IC50 is reported as 13 µM and the “efficacy for reducing HSV1 infectivity (in words)” value is reported as “had efficacy”.

For CC(=O)N[C@@H](CC(C)C)C(=O)N[C@@H](CCCNC(=N)N)C(=O)N[C@@H](CCCCN)C(=O)N[C@@H](CC(C)C)C(=O)N[C@@H](CCCNC(=N)N)C(=O)N[C@@H](CCCCN)C(=O)N[C@@H](CC(C)C)C(=O)N[C@@H](CCCNC(=N)N)C(=O)N[C@@H](CCCCN)C(=O)N[C@@H](CC(C)C)C(=O)N[C@@H](CCCNC(=N)N)C(=O)N[C@@H](CCCCN)C(=O)N[C@@H](CC(C)C)C(=O)N[C@@H](CCCNC(=N)N)C(=O)N[C@@H](CCCCN)C(=O)N[C@@H](CC(C)C)C(=O)N[C@@H](CCCNC(=N)N)C(=O)N[C@@H](CCCCN)C(N)=O [GIN 9] (Ac-LRKLRKLRKLRKLRKLRK-NH2), the IC50 was 15.5 µM and the “efficacy for reducing HSV1 infectivity (in words)” value was “had efficacy”.

For CC(=O)N[C@@H](CCCNC(=N)N)C(=O)N[C@@H](CC(C)C)C(=O)N[C@@H](CC(C)C)C(=O)N[C@@H](CCCNC(=N)N)C(=O)N[C@@H](CC(C)C)C(=O)N[C@@H](CC(C)C)C(=O)N[C@@H](CCCNC(=N)N)C(=O)N[C@@H](CC(C)C)C(=O)N[C@@H](CC(C)C)C(=O)N[C@@H](CCCNC(=N)N)C(=O)N[C@@H](CC(C)C)C(=O)N[C@@H](CC(C)C)C(=O)N[C@@H](CCCNC(=N)N)C(=O)N[C@@H](CC(C)C)C(=O)N[C@@H](CC(C)C)C(=O)N[C@@H](CCCNC(=N)N)C(=O)N[C@@H](CC(C)C)C(=O)N[C@@H](CC(C)C)C(N)=O [GIN 10] (Ac-RLLRLLRLLRLLRLLRLL-NH2), the “efficacy for reducing HSV1 infectivity (in words)” value was “no, or poor, efficacy”, the IC50 (HSV1, Vero cells, Table 4 (Example 2), read-out: Apparent IC50) was 39 µM and the IC50 [1] was 39 µM.

With CC(=O)N[C@@H](CC(C)C)C(=O)N[C@@H](CCCNC(=N)N)C(=O)N[C@@H](CCCCN)C(=O)N[C@@H](CC(C)C)C(=O)N[C@@H](CCCNC(=N)N)C(=O)N[C@@H](CCCCN)C(=O)N[C@@H](CCCNC(=N)N)C(=O)N[C@@H](CC(C)C)C(=O)N[C@@H](CC(C)C)C(=O)N[C@@H](CCCNC(=N)N)C(=O)N[C@@H](CC(=O)O)C(=O)N[C@@H](C)C(=O)N[C@@H](CC(=O)O)C(=O)N[C@@H](CC(=O)O)C(=O)N[C@@H](CC(C)C)C(=O)N[C@@H](CCC(N)=O)C(=O)N[C@@H](CCCCN)C(=O)N[C@@H](CCCNC(=N)N)C(=O)N[C@@H](CC(C)C)C(=O)N[C@@H](C)C(N)=O [GIN 12, LRKLRKRLLR DADDLQKRLA] (Ac-LRKLRKRLLRDADDLQKRLA-NH2) the IC50 was > 40 µM and the “efficacy for reducing HSV1 infectivity (in words)” value was “no, or poor, efficacy”.

In the case of CC(=O)N[C@@H](CCCNC(=N)N)C(=O)N[C@@H](CC(=O)O)C(=O)N[C@@H](C)C(=O)N[C@@H](CC(=O)O)C(=O)N[C@@H](CC(=O)O)C(=O)N[C@@H](CC(C)C)C(=O)N[C@@H](CCC(N)=O)C(=O)N[C@@H](CCCCN)C(=O)N[C@@H](CCCNC(=N)N)C(=O)N[C@@H](CCCNC(=N)N)C(=O)N[C@@H](CC(=O)O)C(=O)N[C@@H](C)C(=O)N[C@@H](CC(=O)O)C(=O)N[C@@H](CC(=O)O)C(=O)N[C@@H](CC(C)C)C(=O)N[C@@H](CCC(N)=O)C(=O)N[C@@H](CCCCN)C(=O)N[C@@H](CCCNC(=N)N)C(N)=O [GIN 13, RDADDLQKR RDADDLQKR] (Ac-RDADDLQKRRDADDLQKR-NH2), the IC50 is reported as > 40 µM and the “efficacy for reducing HSV1 infectivity (in words)” value is reported as “no, or poor, efficacy”.

In the case of CSCC[C@H](NC(=O)[C@H](CCCNC(=N)N)NC(=O)[C@H](C)NC(=O)[C@H](CCCNC(=N)N)NC(=O)[C@H](CC(C)C)NC(=O)[C@H](CCCNC(=N)N)NC(=O)[C@H](CCC(=O)O)NC(=O)CNC(=O)[C@H](CCC(=O)O)NC(=O)[C@H](CCSC)NC(=O)[C@H](CCCNC(=N)N)NC(=O)[C@H](C)NC(=O)[C@H](CCCNC(=N)N)NC(=O)[C@H](CC(C)C)NC(=O)[C@H](CCCNC(=N)N)NC(=O)[C@H](CCC(=O)O)NC(=O)CNC(C)=O)C(=O)N[C@@H](CCC(=O)O)C(N)=O [GIN 14] (Ac-GERLRARMEGERLRARME-NH2), the IC50 is reported as > 40 µM and the “efficacy for reducing HSV1 infectivity (in words)” value is reported as “no, or poor, efficacy”.

In the case of CSCC[C@H](NC(=O)[C@H](CCC(=O)O)NC(=O)[C@H](CCC(=O)O)NC(=O)[C@H](CCSC)NC(=O)[C@H](CCCNC(=N)N)NC(=O)[C@H](C)NC(=O)[C@H](CCCNC(=N)N)NC(=O)[C@H](CC(C)C)NC(=O)[C@H](CCCNC(=N)N)NC(=O)[C@H](CCSC)NC(=O)[C@H](CCC(=O)O)NC(=O)[C@H](CCC(=O)O)NC(=O)[C@H](CCSC)NC(=O)[C@H](CCCNC(=N)N)NC(=O)[C@H](C)NC(=O)[C@H](CCCNC(=N)N)NC(=O)[C@H](CC(C)C)NC(=O)[C@H](CCCNC(=N)N)NC(C)=O)C(N)=O [GIN 15] (Ac-RLRARMEEMRLRARMEEM-NH2), the IC50 is reported as > 40 µM and the “efficacy for reducing HSV1 infectivity (in words)” value is reported as “no, or poor, efficacy”.

For CC(=O)N[C@@H](CC(=O)O)C(=O)N[C@@H](Cc1c[nH]c2ccccc12)C(=O)N[C@@H](CC(C)C)C(=O)N[C@@H](CCCCN)C(=O)N[C@@H](C)C(=O)N[C@@H](Cc1ccccc1)C(=O)N[C@@H](Cc1ccc(O)cc1)C(=O)N[C@@H](CC(=O)O)C(=O)N[C@@H](CCCCN)C(=O)N[C@H](C(=O)N[C@@H](C)C(=O)N[C@@H](CCC(=O)O)C(=O)N[C@@H](CCCCN)C(=O)N[C@@H](CC(C)C)C(=O)N[C@@H](CCCCN)C(=O)N[C@@H](CCC(=O)O)C(=O)N[C@@H](C)C(=O)N[C@@H](Cc1ccccc1)C(N)=O)C(C)C [GIN 22] (Ac-DWLKAFYDKVAEKLKEAF-NH2), the IC50 (HSV1, Vero cells, Table 5 (Example 2), read-out: Apparent IC50) was 36 µM and the IC50 [1] was 36 µM.
